Key:
Assay type in all cases: biochemical
Conditions in all cases: Table 8
[1] = test system: Rabbit Skeletal myofibrils (rabbit psoas muscle); assay: Myofibril ATPase assay (PK/LDH NADH-coupled), skeletal myofibrils
In short: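 ATPase rate taken as linear-regression slope of A340 (NADH depletion through PK/LDH coupling) over a 75 min kinetic read, with psoas-derived rabbit skeletal myofibrils at pH 7.0. Four-parameter fits of vehicle-normalized activity give EC25 and, where reached, EC50.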

Porcine Atria myofibrils = assay: Myofibril ATPase assay (PK/LDH NADH-coupled), atria myofibrils
In short: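 Values are EC25% (and, for inhibitors, EC50%) from 4-parameter logistic fits of activity normalized to vehicle wells. Rates came from linear regression of 340 nm kinetic reads (every 1.5-2 min, 75 min) of NADH-coupled ATP turnover by porcine atria myofibrils.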

[2] = target: T1, Porcine Ventricle myofibrils (left ventricle of Yucatan minipigs) (Sus scrofa, UniProt P79293); assay: Myofibril ATPase assay (PK/LDH NADH-coupled), ventricle myofibrils
T1 construct: Myofibrils from porcine cardiac muscle was isolated from the left ventricle of Yucatan minipigs; tissue Exemplar Genetics; host or cells: left ventricle of Yucatan minipigs
T1 sequence (P79293 whole entry): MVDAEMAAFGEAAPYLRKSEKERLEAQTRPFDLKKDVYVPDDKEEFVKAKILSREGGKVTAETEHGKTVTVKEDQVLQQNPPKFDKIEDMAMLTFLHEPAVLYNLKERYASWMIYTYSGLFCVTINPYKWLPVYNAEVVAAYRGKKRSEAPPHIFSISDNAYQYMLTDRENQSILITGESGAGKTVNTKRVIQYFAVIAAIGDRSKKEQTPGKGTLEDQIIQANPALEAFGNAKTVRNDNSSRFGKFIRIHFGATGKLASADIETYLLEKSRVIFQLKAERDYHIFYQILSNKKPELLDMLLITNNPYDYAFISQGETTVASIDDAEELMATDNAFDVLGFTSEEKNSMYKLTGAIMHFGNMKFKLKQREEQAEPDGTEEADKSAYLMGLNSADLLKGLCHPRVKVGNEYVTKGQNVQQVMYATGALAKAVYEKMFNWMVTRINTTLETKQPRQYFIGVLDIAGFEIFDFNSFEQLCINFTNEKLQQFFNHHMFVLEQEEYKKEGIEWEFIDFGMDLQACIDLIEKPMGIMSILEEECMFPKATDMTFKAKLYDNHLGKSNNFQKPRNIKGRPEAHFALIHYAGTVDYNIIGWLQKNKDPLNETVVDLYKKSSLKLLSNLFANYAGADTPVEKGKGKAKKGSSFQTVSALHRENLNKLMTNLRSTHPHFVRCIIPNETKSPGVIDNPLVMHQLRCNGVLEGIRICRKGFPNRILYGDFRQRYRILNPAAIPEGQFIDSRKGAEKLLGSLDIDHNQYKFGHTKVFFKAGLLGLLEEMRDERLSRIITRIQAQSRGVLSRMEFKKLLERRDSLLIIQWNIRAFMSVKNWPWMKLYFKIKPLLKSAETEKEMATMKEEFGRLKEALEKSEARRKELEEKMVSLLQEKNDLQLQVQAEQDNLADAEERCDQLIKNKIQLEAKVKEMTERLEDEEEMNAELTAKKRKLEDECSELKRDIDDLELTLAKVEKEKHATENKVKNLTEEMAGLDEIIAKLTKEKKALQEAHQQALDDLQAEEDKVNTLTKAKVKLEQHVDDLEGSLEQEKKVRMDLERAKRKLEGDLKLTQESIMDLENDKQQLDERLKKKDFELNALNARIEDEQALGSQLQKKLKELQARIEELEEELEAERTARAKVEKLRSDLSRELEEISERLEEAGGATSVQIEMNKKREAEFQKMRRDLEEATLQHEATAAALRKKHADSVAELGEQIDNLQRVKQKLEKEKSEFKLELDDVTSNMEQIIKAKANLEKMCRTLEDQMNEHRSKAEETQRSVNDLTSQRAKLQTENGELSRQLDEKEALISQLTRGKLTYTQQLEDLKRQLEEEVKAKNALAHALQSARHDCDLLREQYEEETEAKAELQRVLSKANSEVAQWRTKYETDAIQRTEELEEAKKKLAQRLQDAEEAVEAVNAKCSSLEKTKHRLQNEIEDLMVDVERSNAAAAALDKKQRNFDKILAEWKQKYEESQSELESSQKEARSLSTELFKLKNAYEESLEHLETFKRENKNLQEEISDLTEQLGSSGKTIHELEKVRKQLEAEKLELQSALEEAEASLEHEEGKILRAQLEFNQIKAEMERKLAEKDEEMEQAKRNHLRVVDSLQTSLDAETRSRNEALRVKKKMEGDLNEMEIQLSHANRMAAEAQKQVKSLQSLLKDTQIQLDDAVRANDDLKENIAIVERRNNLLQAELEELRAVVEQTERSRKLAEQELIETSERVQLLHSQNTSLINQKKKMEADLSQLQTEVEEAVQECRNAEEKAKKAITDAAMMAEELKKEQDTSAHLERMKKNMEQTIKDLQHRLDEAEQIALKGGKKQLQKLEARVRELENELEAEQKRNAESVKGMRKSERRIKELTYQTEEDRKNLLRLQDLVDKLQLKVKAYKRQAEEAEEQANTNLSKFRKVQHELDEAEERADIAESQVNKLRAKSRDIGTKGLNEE
In short: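 NADH depletion (A340) coupled through pyruvate kinase/lactate dehydrogenase reports ATPase rate of porcine left-ventricle myofibrils over 75 min kinetic reads. Regression slopes, vehicle-normalized, fitted by 4-parameter logistic give EC25 and, where available, EC50.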

SMILES	Rabbit Psoas IC25 [1] [nM]	Porcine Atria IC25 (Porcine Atria myofibrils) [nM]	Porcine Ventricle IC25 [2] [nM]
N#Cc1cnc2c(c1)OC[C@H]2NC(=O)CN1Cc2c(ccc(F)c2F)NC1=O [Compound B64]	777.3	520	579.8
CC(C)C[C@@H](C(=O)N[C@H](C)c1ccc(F)cc1F)N1Cc2cc(F)ccc2NC1=O [Compound B66]	100000	100000	100000
Cc1cc([C@@H](C)NC(=O)CN2Cc3c(ccc(F)c3F)NC2=O)ncc1F [Compound B68]	58620	2030	1168
Cc1cc(C(C)NC(=O)CN2Cc3c(ccc(F)c3F)NC2=O)ncc1Cl (stereo not drawn) [Compound B70]	1912	350	1114
Cc1noc([C@@H](C)NC(=O)CN2Cc3c(ccc(F)c3F)NC2=O)n1 [Compound B71]	100000	43180	40660
Cc1noc([C@H](C)NC(=O)CN2Cc3c(ccc(F)c3F)NC2=O)n1 [Compound B72]	1903	2250	100000
C[C@@H](NC(=O)CN1Cc2c(ccc(F)c2F)NC1=O)c1cc2c(cn1)OCCN2C [Compound B73]	23300	1220	2134
O=C(CN1Cc2c(ccc(F)c2F)NC1=O)N[C@@H]1COCc2cc(F)ccc21 [Compound B75]	91.36	20	14.4
CC(NC(=O)CN1Cc2c(ccc(F)c2F)NC1=O)c1ncc(C#N)cc1F (stereo not drawn) [Compound B77]	48.8	40	76.8
CC(NC(=O)CN1Cc2cc(F)ccc2NC1=O)c1ccc(C#N)cc1F (stereo not drawn) [Compound B78]	41.7	40	109.1
COc1cc(C#N)ncc1[C@@H](C)NC(=O)CN1Cc2c(ccc(F)c2F)NC1=O [Compound B79]	266.2	40	445.4
COc1cc(C#N)ncc1[C@H](C)NC(=O)CN1Cc2c(ccc(F)c2F)NC1=O [Compound B80]	8828	60	2778
C[C@@H](NC(=O)CN1Cc2c(ccc(F)c2F)NC1=O)c1ncc(Cl)cc1F [Compound B81]	5776	90	409.2
C[C@H](NC(=O)CN1Cc2c(ccc(F)c2F)NC1=O)c1ncc(Cl)cc1F [Compound B82]	18.3	30	56.1
Cc1cc(C#N)ncc1[C@@H](C)NC(=O)CN1Cc2c(ccc(F)c2F)NC1=O [Compound B83]	21.4	40	51.9
C[C@@H](NC(=O)CN1Cc2c(ccc(F)c2F)NC1=O)c1nc(-c2ccc(F)cn2)no1 [Compound B85]	4582	390	28590
C[C@H](NC(=O)CN1Cc2c(ccc(F)c2F)NC1=O)c1nc(-c2ccc(F)cn2)no1 [Compound B86]	100000	100000	100000
O=C(CN1Cc2c(ccc(F)c2F)NC1=O)N[C@H]1COc2ccc(F)cc2C1 [Compound B88]	100000	460	2339
N#Cc1cnc2c(c1)CC[C@H]2NC(=O)CN1Cc2c(ccc(F)c2F)NC1=O [Compound B89, N-[(7R)-3-Cyano-5H,6H,7H-cyclopenta[b]pyridin-7-yl]-2-(5,6-difluoro-2-oxo-1,4-dihydroquinazolin-3-yl)acetamide]	78.47	70	246.9
N#Cc1cnc2c(c1)CC[C@@H]2NC(=O)CN1Cc2c(ccc(F)c2F)NC1=O [Compound B90]	100000	10980	100000
C[C@@H](NC(=O)CN1Cc2c(ccc(F)c2F)NC1=O)c1cnc(C#N)cn1 [Compound B91]	391.3	140	783
C[C@H](NC(=O)CN1Cc2c(ccc(F)c2F)NC1=O)c1cnc(C#N)cn1 [Compound B92]	19.09	30	51.26
C[C@@H](NC(=O)CN1Cc2c(ccc(F)c2F)NC1=O)c1ccc(Cl)cn1 [Compound B93]	11450	1260	5574
C[C@H](NC(=O)CN1Cc2c(ccc(F)c2F)NC1=O)c1ccc(Cl)cn1 [Compound B94]	129.4	90	543.8
C[C@@H](NC(=O)CN1Cc2c(ccc(F)c2F)NC1=O)c1nnc(-c2ccccc2F)s1 [Compound B95]	100000	1560	100000
C[C@H](NC(=O)CN1Cc2c(ccc(F)c2F)NC1=O)c1nnc(-c2ccccc2F)s1 [Compound B96]	21880	1910	100000
C[C@@H](NC(=O)CN1Cc2c(ccc(F)c2F)NC1=O)c1nnc2c(Cl)cc(C(F)(F)F)cn12 [Compound B97]	8892	1430	4796
C[C@H](NC(=O)CN1Cc2c(ccc(F)c2F)NC1=O)c1nnc2c(Cl)cc(C(F)(F)F)cn12 [Compound B98]	93470	100000	72380
